Test results taken from PMC4721923 (PLoS ONE, 2015).
Where “and” joins values, the source holds several entries; their conditions need not be identical. Equal entries are not always repeated. Where two headings read alike, the source gives them in different places.

Legend:
[1] = molecular target: T1, OCT1 (Homo sapiens, UniProt O15245); experiment: Flow cytometric ASP+-uptake inhibition, HEK-OCT1; assay type: cell-based; conditions: HEK-OCT1; 1 μM ASP+; ± SEM (N = 3); read-out: IC50, inhibition of ASP+-uptake
T1 construct: containing the full length SLC22A1 cDNA (NM_003057) encoding the human OCT1 protein; expressed in transfected cells
T1 sequence (O15245 1-554): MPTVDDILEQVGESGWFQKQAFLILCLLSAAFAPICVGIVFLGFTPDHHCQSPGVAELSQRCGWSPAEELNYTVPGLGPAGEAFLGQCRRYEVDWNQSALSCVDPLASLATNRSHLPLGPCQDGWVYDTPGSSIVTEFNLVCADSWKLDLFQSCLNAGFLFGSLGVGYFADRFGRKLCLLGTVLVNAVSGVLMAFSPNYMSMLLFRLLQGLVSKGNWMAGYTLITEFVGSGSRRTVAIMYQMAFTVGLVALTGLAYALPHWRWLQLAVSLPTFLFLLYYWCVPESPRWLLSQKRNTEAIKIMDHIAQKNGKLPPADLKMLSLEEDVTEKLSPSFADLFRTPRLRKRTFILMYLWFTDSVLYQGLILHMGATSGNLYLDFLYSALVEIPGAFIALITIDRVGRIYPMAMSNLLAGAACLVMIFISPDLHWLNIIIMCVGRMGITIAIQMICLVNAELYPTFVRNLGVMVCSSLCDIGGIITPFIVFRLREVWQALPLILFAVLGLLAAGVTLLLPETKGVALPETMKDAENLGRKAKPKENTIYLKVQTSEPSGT
Method: (§1) The previously described fluorescent substrate of organic cation transporters, 4-(4-dimethylaminostyryl)-N-methylpyridinium (ASP^+), was used to determine the function of OCT1 and OCT3 by flow cytometry in the absence and the presence of bendamustine and selected bendamustine esters. HEK293 cells expressing the transporter of interest were trypsinized and washed twice with PBS, prior to re-suspension of 0.5 · 10^6 cells in 500 μL of PBS containing 2% (v/v) FCS. The cells were incubated with ASP^+ (100 μM stock solution in PBS containing 10% DMSO) for 5 minutes, allowing for cellular accumulation, and subsequently analyzed with a FACSCalibur flow cytometer. ASP^+ was excited at 488 nm and the fluorescence was measured using a 530/30 nm and a 585/42 band-pass filter. At least 1 · 10^4 single cells were analyzed by appropriate FSC/SSC gating.
(§2) The cells were pre-incubated with the respective test compound at different concentrations at room temperature for 10 minutes. Afterwards, ASP^+ was added to a final concentration of 1 μM, and the samples were incubated at 37°C in the dark for 5 minutes. Subsequently, the cells were washed, re-suspended in ice-cold PBS/FCS and stored on ice in the dark until measurement.
(§3) The normalized mean fluorescence intensities of the OCT expressing cells, set to 100% in the absence of an inhibitor, were calculated by subtracting the mean fluorescence intensity of unspecific ASP^+ uptake into HEK-Co control cells. The normalized fluorescence intensities in the presence of an inhibitor were plotted against the logarithm of the concentrations of the test compounds to calculate IC50 values. The “log (inhibitor) vs. normalized response-variable slope” equation of GraphPad Prism 5.01 was used for this purpose.

[2] = molecular target: T2, OCT3 (Homo sapiens, UniProt O75751); experiment: Flow cytometric ASP+-uptake inhibition, HEK-OCT3; assay type: cell-based; conditions: HEK-OCT3; 1 μM ASP+; ± SEM (N = 3); read-out: IC50, inhibition of ASP+-uptake
T2 construct: expressed in transfected cells; host or cells: HEK293 (HEK-OCT3)
T2 sequence (O75751 1-556): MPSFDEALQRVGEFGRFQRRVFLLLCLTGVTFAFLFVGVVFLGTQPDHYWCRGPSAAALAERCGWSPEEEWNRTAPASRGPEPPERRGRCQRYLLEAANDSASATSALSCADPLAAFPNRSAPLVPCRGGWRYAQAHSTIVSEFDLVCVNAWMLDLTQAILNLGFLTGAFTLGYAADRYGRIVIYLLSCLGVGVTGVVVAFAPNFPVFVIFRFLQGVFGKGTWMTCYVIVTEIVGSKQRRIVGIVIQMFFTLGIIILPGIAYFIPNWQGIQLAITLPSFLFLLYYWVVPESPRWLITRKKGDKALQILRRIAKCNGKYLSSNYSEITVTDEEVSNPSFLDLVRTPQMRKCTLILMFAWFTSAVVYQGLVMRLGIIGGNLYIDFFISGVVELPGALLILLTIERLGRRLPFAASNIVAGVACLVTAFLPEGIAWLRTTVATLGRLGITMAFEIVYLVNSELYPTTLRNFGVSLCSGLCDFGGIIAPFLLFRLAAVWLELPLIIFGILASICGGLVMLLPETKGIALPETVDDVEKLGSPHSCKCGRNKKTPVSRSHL
Method: as §1, §2, §3

[3] = molecular target: T1, OCT1; experiment: Confocal laser scanning microscopy of ASP+ uptake, HEK-OCT1; assay type: cell-based; conditions: compound 5 15 μM; TPA 200 μM; ASP+ 1 μM
Method: (§4) HEK-Co, HEK-OCT1 and HEK-OCT3 cells were seeded into 8-well μ-Slides (Ibidi, Munich, Germany) (2 · 10^4 cells/well) and allowed to attach for 48 hours. Prior to the staining procedure, the medium was replaced by PBS and the DNA probe Draq5 (5 μM) (Biostatus, Shepshed, UK) was added to each well. […] Subsequently, ASP^+ was added to reach a concentration of 1 μM, and the cells were incubated for 5 minutes in the dark. Imaging was performed with an Axiovert 200 M confocal microscope coupled to a Zeiss LSM 510 scanning device (Carl Zeiss, Oberkochen, Germany) using a Plan-Apochromat 63x/1.40 oil immersion objective. Draq5 was excited at 633 nm and fluorescence was detected using a 650 nm long-pass filter, ASP^+ was excited at 488 nm and detected using a 565/35 nm band-pass filter.

[4] = molecular target: T2, OCT3; experiment: Confocal laser scanning microscopy of ASP+ uptake, HEK-OCT3; assay type: cell-based; conditions: compound 5 15 μM; TPA 200 μM; ASP+ 1 μM
Method: as §4

[5] = molecular target: T1, OCT1; parameters: method as in PMID 15389554; conditions: microtiter assay; cited from earlier work
[6] = system: OCT3; parameters: method as in PMID 23982114; conditions: microtiter assay; cited from earlier work
[7] = system: OCT1; conditions: cited from earlier work
[8] = system: OCT3; parameters: method as in PMID 23506881; conditions: cited from earlier work

**Q.** What does the source list for `CCCCC[N+](CCCCC)(CCCCC)CCCCC` [TPA, tetrapentyl ammonium, reference compound]?
**A.** IC50 [1]: 6.04 µM and 6 µM; IC50 [2]: 19.9 ± 2.2 µM; effect on OCT1 activity (ASP+ uptake, imaging) [3]: inhibited; effect on OCT3 activity (ASP+ uptake, imaging) [4]: inhibited; IC50 [5]: 7.9 µM; IC50 [6]: 28 µM

**Q.** Which IC50 [7] does the source give for `N.N.[Cl][Pt][Cl]` [cisplatin] here?
**A.** The IC50 was over 100 µM.

**Q.** Which IC50 [8] does the source give for `O=C1c2c(O)ccc(O)c2C(=O)c2c(NCCNCCO)ccc(NCCNCCO)c21` [mitoxantrone] here?
**A.** The IC50 was 440 µM.
